From PubChem BioAssay (NCI)
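Five compound concentrations were applied to cells in 96-well plates for 48 hours; endpoints were derived by simple linear interpolation of the resulting dose-response curve. The concentration for full growth arrest is given as TGI.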

Tests used:
Test in all cases: NCI tumour cell line growth inhibition, 48 h
KM20L2 colon = test system: KM20L2 colon
HOP-18 NSCLC = test system: HOP-18 NSCLC
DMS 273 small cell lung = test system: DMS 273 small cell lung
DLD-1 colon = test system: DLD-1 colon
P388/ADR leukemia = test system: P388/ADR leukemia
DMS 114 small cell lung = test system: DMS 114 small cell lung
XF 498 CNS = test system: XF 498 CNS
P388 leukemia = test system: P388 leukemia
SN12K1 renal = test system: SN12K1 renal
LXFL 529 NSCLC = test system: LXFL 529 NSCLC

Row | SMILES | TGI (KM20L2 colon) [µM] | TGI (HOP-18 NSCLC) [µM] | TGI (DMS 273 small cell lung) [µM] | TGI (DLD-1 colon) [µM] | TGI (P388/ADR leukemia) [µM] | TGI (DMS 114 small cell lung) [µM] | TGI (XF 498 CNS) [µM] | TGI (P388 leukemia) [µM] | TGI (SN12K1 renal) [µM] | TGI (LXFL 529 NSCLC) [µM]
1 | CC(=O)Oc1ccc(C2COc3cc(OC(C)=O)c(OC(C)=O)cc3C2)cc1 (stereo not drawn) | 75.5 | 46.8 | 61.6 | 38 | > 53.6 | 17.1 | 25.9 | 37.1 | 35.9 | –
2 | COc1cc2c(cc1OC)-c1c3c(cc4c1[C@@H](C2)N(C)CC4)OCO3 | 31.9 | 52 | 14.5 | 49.5 | 23.3 | 24.8 | – | 27.1 | 22.3 | –
3 | NCCCCNCCCNC(=O)c1nc(-c2csc(CCN)n2)sc1Cl | > 100 | – | > 100 | > 100 | – | > 100 | > 100 | – | – | 45.6
